Measured values published in PMC9296036, “A peptide interfering with the dimerization of oncogenic KITENIN protein and its stability suppresses colorectal tumour progression” (Clinical and Translational Medicine, 2022).
Ends that are not written are not given here.

Tested on: CT-26/iRFP/KITENIN-V5 liver metastases
Test: Intrasplenic hepatic metastasis model, CT-26/iRFP/KITENIN-V5 cells in syngeneic mice
Format: in vivo, mouse
Method: For hepatic metastasis analysis, 5‐ to 6‐week‐old Balb/c mice were obtained from OrientBio, Inc. (Seongnam, Korea) and housed in metal cages with free access to water and food. A syngeneic mouse model of colorectal liver metastasis was established by an infusion of tumour cells into the portal system via intrasplenic injection.[27] In brief, CT‐26/KITENIN‐iRFP‐expressing cells (2 × 10^5 cells/mouse) were injected into the spleen. Splenectomy was performed 15 min after an injection of CT‐26 cells. Mice were randomly assigned to two groups: scrambled peptide and KDIP (1, 5 mg/kg). Each peptide was given via intravenous injection six times for 2 weeks after 7 days of inoculation of tumour cells. Metastatic tumour nodules in the liver with a diameter of >1.0 mm were counted using a microscope, and a metastasis score was allocated based on nodule size as follows: 0 (no gross metastasis), 1 (tumour size >1 mm), 2 (tumour size 1 >5 mm) and 3 (tumour size >10 mm). The metastasis score was obtained by multiplying the number and the score of nodules. Fluorescence images of liver nodules expressing iRFP were taken using a Fluorescence‐labelled Organism Bioimaging Instrument (Cellgentek, Korea) and total fluorescence emitted from liver nodules was measured and compared between groups.
Effect of KAI1 C‐terminal interacting tetraspanin (KITENIN) dimerization‐interfering peptide (KDIP) on tumour growth and metastasis in in vivo mouse model of colorectal cancer (CRC). (A) Treatment with KDIP decreases cell invasion of KITENIN‐overexpressing CT‐26 cells. Cell invasion assay was performed in CT‐26 cells transfected with KITENIN and treated with scr‐peptide or KDIP (1 μM) (upper panel). […] For the evaluation of metastasis, total fluorescence emitted from liver nodules expressing iRFP was measured and counted (left panel) or metastatic tumour growth was counted as nodules that migrated to the surface of the liver, and a metastatic score was obtained by multiplying it with size (middle panel). Metastatic score or total fluorescence is represented as mean ± SEM. […]

[1] = KDIP 5 mg/kg versus scrambled peptide, immunoblot densitometry, n = 6

Question: What does the source list for YARVRRRGPRRWRLVSDEAV [KDIP]?
Answer: fluorescence of the hepatic nodule (liver metastasis, in words) (KDIP 5 mg/kg intravenously for 2 weeks, compared with scramble peptide group): significantly reduced; KITENIN level in metastatic liver nodules (in words) [1]: significantly decreased; protein level of Myo10 in metastatic liver nodules (in words) [1]: significantly decreased
